# From BindingDB's records for doi:10.7270/Q2PR7TDC (Burnham Center For Chemical Genomics, 2010)
# Experiment: analog potency on TNFa NF-kB signaling – cell-based, revised, SAR follow-up (AID 2337)
row,SMILES,IC50
1,Cc1cc(SCC(=O)OCC(=O)C(C#N)c2nc3ccccc3[nH]2)c(C)cc1Br (stereo not drawn),> 20 µM
2,"CCCOC1=CC(=O)C(C=NNC(=S)Nc2ccccc2[N+](=O)[O-])C=C1 (stereo not drawn) [1-(2-nitrophenyl)-3-[[(E)-(6-oxo-4-propoxy-1-cyclohexa-2,4-dienylidene)methyl]amino]thiourea]",0.88 µM
3,"Cc1cc(Br)ccc1SCC(=O)OCC(=O)C(C#N)c1nc2ccccc2[nH]1 (stereo not drawn) [2-[(4-bromo-2-methylphenyl)thio]acetic acid [3-cyano-3-(1,3-dihydrobenzimidazol-2-ylidene)-2-oxopropyl] ester]",> 20 µM
4,"Cc1ccc(O)c(/N=C/C2=CC(Cc3ccccc3)C=C([N+](=O)[O-])C2=O)c1 (stereo not drawn) [(6E)-6-[[(5-methyl-2-oxidanyl-phenyl)amino]methylidene]-2-nitro-4-(phenylmethyl)cyclohexa-2,4-dien-1-one]",> 20 µM
5,Cc1ccc(C)c(SCC(=O)OCC(=O)C(C#N)c2nc3ccccc3[nH]2)c1 (stereo not drawn) [MLS000392255],> 20 µM
6,N#CC(C(=O)COC(=O)CSc1ccc(Cl)cc1)c1nc2ccccc2[nH]1 (stereo not drawn) [MLS-0208254.0001],> 20 µM
7,CCOC1=CC=CC(C=NNC(=S)Nc2ccccc2[N+](=O)[O-])C1=O (stereo not drawn) [MLS-0270696.0001],0.414 µM
8,"N#CC(C(=O)COC(=O)CSc1ccc2ccccc2c1)c1nc2ccccc2[nH]1 (stereo not drawn) [[3-cyano-3-(1,3-dihydrobenzimidazol-2-ylidene)-2-oxopropyl] 2-naphthalen-2-ylsulfanylacetate]",> 20 µM
